pIC50: −log10 of the molar value.

The record followed here is US20250381243A1, “HETEROCYCLES AND USES THEREOF” (Kumquat Biosciences Inc., priority 2022, published 2025).

In one experiment the test system is A549 cells. Kind of experiment: Cell proliferation assay (CellTiter-Glo), cells with K-Ras G12S mutation. The class given is cell-based. Conditions: Homo sapiens, 500 nM to 5 μM (mixed units), read-out: Inhibition of A549 Cells (IC50). The method in brief:
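A549 (K-Ras G12S) cells in RPMI-1640 with 10% heat-inactivated FBS, plated in standard or ultra-low-attachment 384-well format, treated next day with a dilution series (e.g., 10-point, 3-fold). Viability read by CellTiter-Glo luminescence about 6 days later; IC50 from four-parameter fit.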
By pIC50 is commonly meant the IC50 on a negative log10 scale, so that one unit is a factor of ten. Turning to `N#Cc1c(N)sc2c(F)ccc(-c3c(Cl)cc4c(N5CCCC(N(C(=O)n6cnc(Cl)n6)C6CC6)C5)nc(OC[C@@]56CCCN5C[C@H](F)C6)nc4c3F)c12` (stereo partly drawn) [Compound 151, N-(1-(7-(2-amino-3-cyano-7-fluorobenzo[b]thiophen-4-yl)-6-chloro-8-fluoro-2-(((2R,7aS)-2-fluorotetrahydro-1H-pyrrolizin-7a(5H)-yl)methoxy)quinazolin-4-yl)piperidin-3-yl)-3-chloro-N-cyclopropyl-1H-1,2,4-triazole-1-carboxamide], the pIC50 is 5.30 to 6.30.

`CC(C)[C@H]1N(C(=O)n2cnc(Cl)n2)C[C@]12CC[C@@H](C)N(c1nc(OC[C@@]34CCCN3C[C@H](F)C4)nc3c(F)c(-c4ccc(F)c5sc(N)c(C#N)c45)c(Cl)cc13)C2` [Compound 153, 2-amino-4-(6-chloro-4-((1R,4R,7R)-2-(3-chloro-1H-1,2,4-triazole-1-carbonyl)-1-isopropyl-7-methyl-2,6-diazaspiro[3.5]nonan-6-yl)-8-fluoro-2-(((2R,7aS)-2-fluorotetrahydro-1H-pyrrolizin-7a(5H)-yl)methoxy)quinazolin-7-yl)-7-fluorobenzo[b]thiophene-3-carbonitrile]: the pIC50 was 5.30 to 6.30.

As to `N#Cc1c(N)sc2c(F)ccc(-c3c(Cl)cc4c(N5CCOC6(C5)CN(C(=O)n5cncn5)C6C5CC5)nc(OC[C@@]56CCCN5C[C@H](F)C6)nc4c3F)c12` (stereo partly drawn) [Compound 156, 2-amino-4-(6-chloro-4-(1-cyclopropyl-2-(1H-1,2,4-triazole-1-carbonyl)-5-oxa-2,8-diazaspiro[3.5]nonan-8-yl)-8-fluoro-2-(((2R,7aS)-2-fluorotetrahydro-1H-pyrrolizin-7a(5H)-yl)methoxy)quinazolin-7-yl)-7-fluorobenzo[b]thiophene-3-carbonitrile], the pIC50 was 5.30 to 6.30.

Turning to `N#CCCN(C(=O)n1cncn1)C1CCCN(c2nc(OC[C@@]34CCCN3C[C@H](F)C4)nc3c(F)c(-c4ccc(F)c5sc(N)c(C#N)c45)c(Cl)cc23)CC1` (stereo partly drawn) [Compound 166, N-(1-(7-(2-amino-3-cyano-7-fluorobenzo[b]thiophen-4-yl)-6-chloro-8-fluoro-2-(((2R,7aS)-2-fluorotetrahydro-1H-pyrrolizin-7a(5H)-yl)methoxy)quinazolin-4-yl)azepan-4-yl)-N-(2-cyanoethyl)-1H-1,2,4-triazole-1-carboxamide], the pIC50 is 5.30 to 6.30.

Regarding `CC([C@H]1CCN1C(=O)n1cnc(Cl)n1)N(C)c1nc(OC[C@@]23CCCN2C[C@H](F)C3)nc2c(F)c(-c3ccc(F)c4sc(N)c(C#N)c34)c(Cl)cc12` (stereo partly drawn) [Compound 172, (4R)-2-amino-4-(6-chloro-4-((1-(1-(3-chloro-1H-1,2,4-triazole-1-carbonyl)azetidin-2-yl)ethyl)(methyl)amino)-8-fluoro-2-(((2R,7aS)-2-fluorotetrahydro-1H-pyrrolizin-7a (5H)-yl)methoxy)quinazolin-7-yl)-7-fluorobenzo[b]thiophene-3-carbonitrile], the pIC50 is 5.30 to 6.30.

Still in this experiment, the particulars now being: Homo sapiens, ≤500 nM, read-out: Inhibition of A549 Cells (IC50).
On to `CN(C[C@@H]1CN(C(=O)n2cnc(F)n2)[C@@H]1C(C)(C)C)c1nc(OC[C@@]23CCCN2C[C@H](F)C3)nc2c(F)c(-c3ccc(F)c4sc(N)c(C#N)c34)c(Cl)cc12` [Compound 152, 2-amino-4-(4-((((2S,3R)-2-(tert-butyl)-1-(3-fluoro-1H-1,2,4-triazole-1-carbonyl)azetidin-3-yl)methyl)(methyl)amino)-6-chloro-8-fluoro-2-(((2R,7aS)-2-fluorotetrahydro-1H-pyrrolizin-7a(5H)-yl)methoxy)quinazolin-7-yl)-7-fluorobenzo[b]thiophene-3-carbonitrile], for which the pIC50 was at least 6.30.

As to `CCN(C[C@@H]1CN(C(=O)n2cnc(Cl)n2)[C@@H]1C(C)C)c1nc(OC[C@@]23CCCN2C[C@H](F)C3)nc2c(F)c(-c3ccc(F)c4sc(N)c(C#N)c34)c(Cl)cc12` [Compound 154, 2-amino-4-(6-chloro-4-((((2R,3R)-1-(3-chloro-1H-1,2,4-triazole-1-carbonyl)-2-isopropylazetidin-3-yl)methyl)(ethyl)amino)-8-fluoro-2-(((2R,7aS)-2-fluorotetrahydro-1H-pyrrolizin-7a(5H)-yl)methoxy)quinazolin-7-yl)-7-fluorobenzo[b]thiophene-3-carbonitrile], the pIC50 is at least 6.30.

For `CC(C)[C@H]1N(C(=O)n2cnc(C(F)(F)F)n2)C[C@@]12CN(c1nc(OC[C@@]34CCCN3C[C@H](F)C4)nc3c(F)c(-c4ccc(F)c5sc(N)c(C#N)c45)c(Cl)cc13)CCO2` [Compound 160, 2-amino-4-(6-chloro-8-fluoro-2-(((2R,7aS)-2-fluorotetrahydro-1H-pyrrolizin-7a(5H)-yl)methoxy)-4-((1R,4S)-1-isopropyl-2-(3-(trifluoromethyl)-1H-1,2,4-triazole-1-carbonyl)-5-oxa-2,8-diazaspiro[3.5]nonan-8-yl)quinazolin-7-yl)-7-fluorobenzo[b]thiophene-3-carbonitrile], the pIC50 is at least 6.30.

As for `CN(C(=O)n1cncn1)C1CCCCN(c2nc(OC[C@@]34CCCN3C[C@H](F)C4)nc3c(F)c(-c4ccc(F)c5sc(N)c(C#N)c45)c(Cl)cc23)C1` (stereo partly drawn) [Compound 161, N-(1-(7-(2-amino-3-cyano-7-fluorobenzo[b]thiophen-4-yl)-6-chloro-8-fluoro-2-(((2R,7aS)-2-fluorotetrahydro-1H-pyrrolizin-7a(5H)-yl)methoxy)quinazolin-4-yl)azepan-3-yl)-N-methyl-1H-1,2,4-triazole-1-carboxamide], the pIC50 is at least 6.30.

Turning to `CC(C)[C@H]1N(C(=O)n2cnc(C(F)F)n2)C[C@]12CCCN(c1nc(OC[C@@]34CCCN3C[C@H](F)C4)nc3c(F)c(-c4ccc(F)c5sc(N)c(C#N)c45)c(Cl)cc13)C2` [Compound 165, 2-amino-4-(6-chloro-4-((1R,4R)-2-(3-(difluoromethyl)-1H-1,2,4-triazole-1-carbonyl)-1-isopropyl-2,6-diazaspiro[3.5]nonan-6-yl)-8-fluoro-2-(((2R,7aS)-2-fluorotetrahydro-1H-pyrrolizin-7a(5H)-yl)methoxy)quinazolin-7-yl)-7-fluorobenzo[b]thiophene-3-carbonitrile], the negative logarithm of the IC50 (pIC50) was at least 6.30.

Consider `CC(C)C1N(C(=O)n2cnc(Cl)n2)CC12CCCN(c1nc(OC[C@@]34CCCN3C[C@H](F)C4)nc3c(F)c(-c4ccc(F)c5sc(N)c(C#N)c45)c(Cl)cc13)C2` (stereo partly drawn) [Compound 175, 2-amino-4-(6-chloro-4-(2-(3-chloro-1H-1,2,4-triazole-1-carbonyl)-1-isopropyl-2,6-diazaspiro[3.5]nonan-6-yl)-8-fluoro-2-(((2R,7aS)-2-fluorotetrahydro-1H-pyrrolizin-7a(5H)-yl)methoxy)quinazolin-7-yl)-7-fluorobenzo[b]thiophene-3-carbonitrile], for which the pIC50 is at least 6.30.

`CCN(C(=O)n1cncn1)C1CCN(c2nc(OC[C@@]34CCCN3C[C@H](F)C4)nc3c(F)c(-c4ccc(F)c5sc(N)c(C#N)c45)c(Cl)cc23)C1` (stereo partly drawn) [Compound 177, N-(1-(7-(2-amino-3-cyano-7-fluorobenzo[b]thiophen-4-yl)-6-chloro-8-fluoro-2-(((2R,7aS)-2-fluorotetrahydro-1H-pyrrolizin-7a(5H)-yl)methoxy)quinazolin-4-yl)pyrrolidin-3-yl)-N-ethyl-1H-1,2,4-triazole-1-carboxamide]: the negative logarithm of the IC50 (pIC50) is at least 6.30.

Regarding `CC1([C@H]2N(C(=O)n3cnc(Cl)n3)C[C@]23CCCN(c2nc(OC[C@@]45CCCN4C[C@H](F)C5)nc4c(F)c(-c5ccc(F)c6sc(N)c(C#N)c56)c(Cl)cc24)C3)CC1` [Compound 179, 2-amino-4-(6-chloro-4-((1R,4R)-2-(3-chloro-1H-1,2,4-triazole-1-carbonyl)-1-(1-methylcyclopropyl)-2,6-diazaspiro[3.5]nonan-6-yl)-8-fluoro-2-(((2R,7aS)-2-fluorotetrahydro-1H-pyrrolizin-7a(5H)-yl)methoxy)quinazolin-7-yl)-7-fluorobenzo[b]thiophene-3-carbonitrile], the pIC50 was at least 6.30.

In the case of `CC(C)N(C(=O)n1cncn1)[C@H]1CCN(c2nc(OC[C@@]34CCCN3C[C@H](F)C4)nc3c(F)c(-c4ccc(F)c5sc(N)c(C#N)c45)c(Cl)cc23)C1` [Compound 180, N-((3S)-1-(7-(2-amino-3-cyano-7-fluorobenzo[b]thiophen-4-yl)-6-chloro-8-fluoro-2-(((2R,7aS)-2-fluorotetrahydro-1H-pyrrolizin-7a(5H)-yl)methoxy)quinazolin-4-yl)pyrrolidin-3-yl)-N-isopropyl-1H-1,2,4-triazole-1-carboxamide], the negative-log IC50 (pIC50) was at least 6.30.

With `CC1N(C(=O)n2cncn2)CC12CCCN(c1nc(OC[C@@]34CCCN3C[C@H](F)C4)nc3c(F)c(-c4ccc(F)c5sc(N)c(C#N)c45)c(Cl)cc13)C2` (stereo partly drawn) [Compound 182, 2-amino-4-(6-chloro-8-fluoro-2-(((2R,7aS)-2-fluorotetrahydro-1H-pyrrolizin-7a(5H)-yl)methoxy)-4-(1-methyl-2-(1H-1,2,4-triazole-1-carbonyl)-2,6-diazaspiro[3.5]nonan-6-yl)quinazolin-7-yl)-7-fluorobenzo[b]thiophene-3-carbonitrile], the pIC50 is at least 6.30.

For the molecule `CC(C)[C@H]1N(C(=O)n2cnc(F)n2)C[C@]12CCCN(c1nc(OC[C@@]34CCCN3C[C@H](F)C4)nc3c(F)c(-c4ccc(F)c5sc(N)c(C#N)c45)c(Cl)cc13)C2` [Compound 184, 2-amino-4-(6-chloro-8-fluoro-4-((1R,4R)-2-(3-fluoro-1H-1,2,4-triazole-1-carbonyl)-1-isopropyl-2,6-diazaspiro[3.5]nonan-6-yl)-2-(((2R,7aS)-2-fluorotetrahydro-1H-pyrrolizin-7a(5H)-yl)methoxy)quinazolin-7-yl)-7-fluorobenzo[b]thiophene-3-carbonitrile], the negative logarithm of the IC50 (pIC50) was at least 6.30.
